From patent publication US7018839B2 (priority 1996, dated 2006)
No end group written: not given here.

Assays:
[1] = system: hippocampal cells in organotypic cultures; experiment: Organotypic hippocampal tissue culture toxicity (trypan blue, LDH, AChE immunocytochemistry); type: cell-based, rats; conditions: for cellular damage in hippocampal sections compared to control samples: semi-acute application for 1 hour, AChE-peptide and/or NMDA
Description: The organotype tissue culture technique requires postnatal (day 5–7) rats given terminal anaesthesia followed by decapitation. Sections of hippocampus, 400 μm thick, are prepared and then plated on a plasma/thrombin clot. A serum-based media is added to these cultures, which can then be maintained at constant temperature (35° C.) for up to 21 days. After each study, cultures are stained with trypan blue to assess cell viability, in addition, after every removal of serum media, cultures are assayed for lactate dehydrogenase (LDH—a soluble cytoplasmic enzyme used as an index of cellular damage).
Following chronic studies (cultures are maintained for 21 days and treated with AChE-peptide and/or NMDA every 3–4 days), cultured cells are immunocytochemically stained for acetylcholinesterase in order to assess what action, if any, the AChE-peptide has on cell number.

[2] = system: neurons in the substantia nigra
anti-peptide antibody = experiment: Competition assay for binding of antibody to immobilised AChE-peptide; set-up: species or system Rabbits; conditions: competitor preincubated with antibody in solution; APP and BuChE peptide at even excessive doses
Description: In order to be sure that the antibody recognition of peptides occurs without the possible distortion due to the binding of the peptide to a charged plastic surface, an assay was used in which the critical interaction is studied in solution. […] An aliquot of the antibody was preincubated with potential competitors for binding to the AChE-peptide before presenting the resulting mixture to the peptide bound to the well.

substantia nigra = experiment: Behavioural studies: infusion into one substantia nigra, amphetamine challenge, circling; type: in vivo, rats; conditions: infused unilaterally into the substantia nigra
Description: In these experiments, rats were chronically implanted with a cannula in one substantia nigra and left to recover. After a period of about 3 days, they were infused with either a saline control solution, or a solution containing the 14-mer AChE peptide of the invention at a dose of 1 μl of 10^−5M. After a single infusion, they were challenged daily with a systemic application of amphetamine for the subsequent 10 days.

Molecule: CN[C@H](CC(=O)O)C(=O)O [NMDA, N-methyl-D-aspartate, reference compound]
- cellular damage in hippocampal sections compared to control samples [1]: extensive cellular damage

Molecule: AEFHRWSSYMVHWK [AChE peptide]
- LDH assays (biochemical studies) ([1]; chronic cultures, 21 days, treated every 3–4 days): support the proposed toxic action
- toxicity detected histochemically ([1]; culture period of three weeks): Toxic effects are also detectable
- interaction with excito-toxic effects of NMDA ([1]; organotypic cultures): synergistic
- time of application until effect can be seen ([1]; organotypic cultures): one
- toxic effects on hippocampal cells ([1]; organotypic cultures): direct toxic effects
- cellular damage in hippocampal sections compared to control samples [1]: extensive cellular damage
- state of the cell on application of NMDA after peptide treatment [2]: severe metabolic stress of the cell

Molecule: AGFHRWNNYMMDWK [BuChE peptide]
- competition for the binding of antibody to immobilised AChE-peptide (anti-peptide antibody): could not compete
- calcium channel opening activity [2]: inactive
- effect of the fragment alone on calcium potentials [2]: without corresponding effect
- effect on the activity of the AChE fragment [2]: inactive

Molecule: acetylcholinesterase [AChE]
- circling behaviour (activity of the nigrostriatal pathway) (substantia nigra): long-term increase in circling behaviour

Molecule: recombinant AChE
- competition for the binding of antibody to immobilised AChE-peptide (anti-peptide antibody): effective competitor
